Source: PMC6776562, “Inhibition of Rac1-dependent forgetting alleviates memory deficits in animal models of Alzheimer’s disease” (Protein & Cell, 2019)

Key:
Format in all cases: in vitro ADME
MDR-MDCK cell line = test: In vitro blood-brain barrier permeability assay; conditions: 5 μmol/L, 37 °C, 90 min
Procedure: The MDR-MDCK cell line can be used as a fast blood-brain barrier (BBB) model to aid drug discovery (Wang et al., [2005]). In this study, the MDR-MDCK cell line was used to evaluate the permeability coefficients of CS7171 and JKF-034. Briefly, CS7171 and JKF-034 were prepared to final concentrations of 5 μmol/L. The cells were dosed on the basolateral side (B-A) and apical side (A-B) and incubated at 37 °C for 90 min. Each test was performed in duplicate. The apparent permeability coefficient, Papp, was calculated using the following formula: Papp=VA/Area×Time×(drugacceptor,90-min/drugdonor,0-min×Dilution Factor
VA is the volume in the acceptor well, Area is the surface area of the membrane, Time is the total transport time in seconds, [drug]donor, 0-min is the donor drug concentration measured at 0 min; [drug]acceptor, 90-min is the acceptor drug concentration measured at 90 min; dilution factor is the degree of dilution of the donor sample before loading to LC-MS/MS.

[1] = In vitro metabolic stability in human liver microsomes
Procedure: (§1) Measurements of metabolic stability can be performed with liver microsomes, which are known to contain the major drug-metabolizing enzymes and UDP-glucuronosyltransferase (Baranczewski et al., [2006]). The in vitro metabolic stability levels of CS7171 and JKF-034 were measured using human, monkey, and mouse liver microsomes. The metabolic half-time (T1/2) and intrinsic clearance (Clint) were assayed using LC-MS analysis. Ketanserin is a potent, orally effective antagonist of endogenous serotonin. Its pharmacological profile is well studied (Brogden and Sorkin, [1990]). In this study, we used ketanserin as a control. If the T1/2 of the tested compound was 30–120 min, the compound was considered to show moderate metabolism in liver microsomes. If the T1/2 value was less than 30 min, the compound was considered to be susceptible to metabolism in liver microsomes.

[2] = In vitro metabolic stability in mouse liver microsomes
Procedure: as §1

Row | Papp Mean, A-B (MDR-MDCK cell line) | Papp Mean, B-A (MDR-MDCK cell line) | Clint [1] [mL/min/kg] | T1/2 [1] [min] | Clint [2] | T1/2 [2] [min] | Compound
1 | 57.33 10^−6 cm/s | 32.79 10^−6 cm/s | 95.92 | 18.12 | 4,702.82 mL/min/kg | 1.16 | O=S(=O)(c1ccccc1)N1CCN(Cc2ccccc2)CC1 [JKF-034]
2 | 7.91 10^−6 cm/s | 3.61 10^−6 cm/s | 407.54 | 4.27 | 477.87 mL/min/kg | 11.42 | O=C1NN(c2ccc(Cl)c(Cl)c2)C(=O)C1=Cc1ccc(O)c(N(O)O)c1 [CS7171]
